In patent publication US20150045291A1, “LIPOPEPTIDE CONJUGATES COMPRISING SPHINGOLIPID AND HIV GP41 DERIVED PEPTIDES” (priority 2012, published 2015):
Like-named read-outs stand apart in the source and are kept apart here. Starred links: 1 amine or outer side, 2 acyl side, 3 side chain; linkers in the order of their positions; H or OH if unused. Residues, ends and D or L forms follow the SMILES beside them. *: point of attachment. Cholesteryloxycarbonyl = CC(C)CCC[C@@H](C)[C@H]1CC[C@H]2[C@@H]3CC=C4C[C@@H](OC(=O)*)CC[C@]4(C)[C@H]3CC[C@]12C; X1 = Cc1c(C)c2c(c(C)c1OC(=O)CCC(=O)*)CCC(C)(CCCC(C)CCCC(C)CCCC(C)C)O2; Sphinganine = CCCCCCCCCCCCCCC[C@@H](O)[C@H](CO)N*; Palmitoyl = CCCCCCCCCCCCCCCC(=O)*; CO = O=C([*:1])[*:2]

Experiments:
[1] = Secondary structure determination by circular dichroism; format: physicochemical; details: percentage of α-helical structure, CD, 10 μM peptide in HEPES buffer 5 mM pH 7.4, 25° C.
Procedure: Secondary structure determination. Circular Dichroism (CD) measurements were performed by using an AppliedPhoto physics spectropolarimeter. The spectra were scanned using a thermostatic quartz cuvette with a path length of 1 mm. Wavelength scans were performed at 25° C.; the average recording time was 15 sec, in 1-nm steps, in the wavelength range of 190-260 nm. Each peptide concentration was 10 μM in HEPES buffer (5 mM, pH 7.4).
Helicity (%): The percentage of α-helical structure was determined as described in the section of Materials and Methods.

[2] = test system: fully infectious HIV-1 HXB2
[3] = Hydrophobicity by RP-HPLC; format: physicochemical; details: RP-HPLC retention time, analytical C2 column, CH3CN/H2O gradient
Procedure: Peptide synthesis, lipid moiety conjugation, and fluorescent labeling. Peptides were synthesized on Rink Amide MBHA resin by using the F-moc strategy. Several peptides contain a lysine residue at their C-terminus with an MTT side-chain protecting group (Nova-biochem AG, Switzerland) that requires a special deprotection step under mild acidic conditions (2×1 min of 5% trifluoroacetic acid (TFA) in dichloromethane (DCM) and 30 min of 1% TFA in DCM). This enables the conjugation of a lipid moiety or a fluorescent probe to the C-terminus. The chemical synthesis schemes of the following compounds 1-5 are described in FIG. 6. Conjugation of hexadecanoic (palmitic) acid (C16) or α-Tocopherol succinate (Sigma Chemical Co., Israel) to the N-terminus of selected peptides (compound 2 and compound 4, respectively) was performed using standard F-moc chemistry. Conjugation of cholesterol to the N-terminus of a peptide (compound 3) was performed by adding 10 equivalents of cholesteryl chloroformate (Alfa Aesar, USA) dissolved in DCM, together with 3 equivalents of triethyl amine to the peptides' resin. Conjugation of D-erythro-Dihydrosphingosine (D-erythro sphinganine), (Matreya, LCC, USA) to the N- or C-terminus of a peptide (compound 1) was performed as followed: first, 10 equivalents of N,N′-Disuccinimidyl carbonate (DSC) (Chem-Impex Internatinal, USA) and 20 equivalents of N,N-Diisopropylethylamine (DIEA) were added to the resin for 2 hours in dimethylformamide (DMF). Then, 2 equivalents of sphinganine and 2 equivalents of DIEA were added for overnight incubation in DMF anhydrous. The conjugation of D-erythro-Sphingosine (Matreya, LCC, USA) to the peptides (compound 5) was performed as described for compound 1. Addition of NBD-F, fluoride (4-fluoro-7-nitrobenzofurazan) (NBD) fluorescent probe (Biotium, USA) to the N- or C-terminus of selected peptides was performed in DMF for 1 hour. All peptides were cleaved from the resin by a TFA:DDW:TES (93.1:4.9:2 (v/v)) mixture, and purified by reverse-phase high-performance liquid chromatography (RP-HPLC) to >95% homogeneity. The molecular weight of the peptides was confirmed by platform LCA electrospray mass spectrometry. For hydrophobicity tests the peptides were eluted with a flow rate of 0.6 ml/min using a two-step linear gradient from CH3CN/H2O 20:80 v/v to CH3CN/H2O 95:5 v/v in 30 min and from CH3CN/H2O 95:5 v/v to CH3CN/H2O 95:5 in 10 min v/v on an analytical C2 column (7 μm particle size, pore size 100 Å) from Nucleosil.
Hydrophobicity (min): Hydrophobicity was analyzed by RP-HPLC. The retention time of each compound is presented.

[4] = test system: pseudotyped virus with AD8 ENV (CCR5 tropic)
[5] = Peptide binding to LUV, PC:SM:Chol (1:1:1); details: Ka, NBD-labeled compound titrated with LUV; mean±s.d. of the fitting curve, n=3
Procedure: (§1) Lipid vesicle preparation. Large unilamellar vesicles (LUV) were prepared from egg phosphatidylcholine (PC), cholesterol (Chol) and egg yolk sphingomyelin (SM) (Sigma Chemical Co., Israel). A dried film of lipids containing a total of 2 mg of PC:SM:Chol (1:1:1) or 2 mg of PC:Chol (9:1) was suspended in PBS and vortexed for 1.5 min. The lipid suspension underwent five cycles of freezing-thawing and then extrusion through polycarbonate membranes with 1 μm and 0.1 μm diameter pores for 25 times.
(§2) Peptide binding to LUV. The degree of peptide association with lipid vesicles was measured by adding lipid vesicles to 0.1 μM fluorescently NBD-labeled peptides at room temperature. The fluorescence intensity was measured as a function of the lipid:peptide molar ratio, with excitation set at 467 nm (10-nm slit) and emission set at 530 nm (10-nm slit). To determine the extent of the lipid's contribution to any given signal, the readings after the addition of lipid vesicles were subtracted as background from the recorded fluorescence intensity. The affinity constants were then determined by steady state affinity model using non-linear least-squares (NLLSQ). The NLLSQ fitting was done using the following equation: […]
(§3) where X is the lipid concentration, Y(x) is the fluorescence emission, Fmax is the maximal difference in the emission of NBD-labeled peptide before and after the addition of lipids (it represents the maximum peptide bound to lipid), and Ka is the affinity constant.
(§4) Compound association with lipid vesicles was estimated by NBD-labeled compound titration with large unilamellar vesicles. The mole ratio between phosphatidylcholine (PC), sphingomyelin (SM), and cholesterol (Chol) is presented for each vesicle. The membrane-binding constants (Ka) were calculated from equation 2 in the Methods. Results represent the mean±s.d. of the fitting curve, n=3.

[6] = test system: pseudotyped virus with LAI ENV (CXCR4 tropic)
[7] = Peptide binding to LUV, PC:Chol (9:1); details: Ka, NBD-labeled compound titrated with LUV; mean±s.d. of the fitting curve, n=3
Procedure: as §1, §2, §3, §4

[8] = test system: Fuzeon-resistant LAI strain with V38E mutation in gp41; assay: Fuzeon-resistant virus infection; details: mutation in the GIV sequence (V38E)
[9] = fully infectious HIV-1 system (Table 2)
[10] = read-out: Virus-cell fusion IC50, TZM-bl cells infected with fully contagious HIV, mean±s.d., n=3

Compound	Helicity (%) [1]	IC50 [2, 9]	IC50 [2, 10]	Hydrophobicity [3]	IC50 [4]	Membrane-binding constant (M^−1), PC:SM:Chol (1:1:1) [5]	Effect on viral infectivity / fusion (in words) ([2]; at / up to 1 μM)	IC50 ([2]; read-out: IC50 (inhibitory concentration at 50% infectivity), TZM-bl cells, fully contagious HXB2 HIV-1)	Viral infectivity curves, compound added to target cells before the virus vs immediately after ([2]; time of addition)	IC50 [6]	Membrane-binding constant (M^−1), PC:Chol (9:1) [7]	Antiviral activity against V38E mutant (in words) [8]	Inhibiting viral infectivity (in words) ([2]; up to 4 μM, the maximal concentration tested)
CC[C@H](C)[C@H](NC(=O)CNC(=O)[C@H](Cc1c[nH]c2ccccc12)NC(=O)[C@@H](NC(=O)[C@@H](NC(=O)[C@H](CC(C)C)NC(=O)[C@H](CCC(N)=O)NC(=O)[C@H](CC(C)C)NC(=O)[C@H](CC(C)C)NC(=O)O[C@H]1CC[C@@]2(C)C(=CC[C@H]3[C@@H]4CC[C@H]([C@H](C)CCCC(C)C)[C@@]4(C)CC[C@@H]32)C1)[C@@H](C)O)C(C)C)C(=O)N[C@@H](CCCCN)C(=O)N[C@@H](CCC(N)=O)C(=O)N[C@@H](CC(C)C)C(=O)N[C@@H](CCC(N)=O)C(=O)N[C@@H](C)C(=O)N[C@@H](CCCNC(=N)N)C(=O)N[C@H](C(=O)N[C@@H](CC(C)C)C(N)=O)[C@@H](C)CC [Cholesterol-N17] (Cholesteryloxycarbonyl-LLQLTVWGIKQLQARIL-NH2)	<10%	> 4000 nM	> 4000 nM	28.9 min	–	–	–	–	–	–	–	–	–
CCCCCCCCCCCCCCC[C@@H](O)[C@H](CO)NC(=O)N[C@@H](CC(C)C)C(=O)N[C@@H](CC(C)C)C(=O)N[C@@H](CCC(N)=O)C(=O)N[C@@H](CC(C)C)C(=O)N[C@H](C(=O)N[C@H](C(=O)N[C@@H](Cc1c[nH]c2ccccc12)C(=O)NCC(=O)N[C@H](C(=O)N[C@@H](CCCCN)C(=O)N[C@@H](CCC(N)=O)C(=O)N[C@@H](CC(C)C)C(=O)N[C@@H](CCC(N)=O)C(=O)N[C@@H](C)C(=O)N[C@@H](CCCNC(=N)N)C(=O)N[C@H](C(=O)N[C@@H](CC(C)C)C(N)=O)[C@@H](C)CC)[C@@H](C)CC)C(C)C)[C@@H](C)O [Sphinganine-N17, Sphinganine-LLQLTVWGIKQLQARIL] ({Sphinganine-CO}-LLQLTVWGIKQLQARIL-NH2)	<10%	121 ± 36 nM	–	27.2 min	403 nM	84000 ± 14000 M⁻¹	completely blocks fusion	121 nM	no difference	312 nM	470000 ± 100000 M⁻¹	preserved its potent antiviral activity	–
CC[C@H](C)[C@H](NC(=O)CNC(=O)[C@H](Cc1c[nH]c2ccccc12)NC(=O)[C@@H](NC(=O)[C@@H](NC(=O)[C@H](CC(C)C)NC(=O)[C@H](CCC(N)=O)NC(=O)[C@H](CC(C)C)NC(=O)[C@H](CC(C)C)NC(=O)CCC(=O)Oc1c(C)c(C)c2c(c1C)CCC(C)(CCCC(C)CCCC(C)CCCC(C)C)O2)[C@@H](C)O)C(C)C)C(=O)N[C@@H](CCCCN)C(=O)N[C@@H](CCC(N)=O)C(=O)N[C@@H](CC(C)C)C(=O)N[C@@H](CCC(N)=O)C(=O)N[C@@H](C)C(=O)N[C@@H](CCCNC(=N)N)C(=O)N[C@H](C(=O)N[C@@H](CC(C)C)C(N)=O)[C@@H](C)CC (stereo partly drawn) [Tocopherol-N17] (X1-LLQLTVWGIKQLQARIL-NH2)	<10%	> 4000 nM	> 4000 nM	28.9 min	–	–	–	–	–	–	–	–	–
enfuvirtide	–	–	–	–	–	31000 ± 5000 M⁻¹	–	–	–	–	64000 ± 14000 M⁻¹	considerably weakened the antiviral activity	–
CC[C@H](C)[C@H](NC(=O)CNC(=O)[C@H](Cc1c[nH]c2ccccc12)NC(=O)[C@@H](NC(=O)[C@@H](NC(=O)[C@H](CC(C)C)NC(=O)[C@H](CCC(N)=O)NC(=O)[C@H](CC(C)C)NC(=O)[C@@H](N)CC(C)C)[C@@H](C)O)C(C)C)C(=O)N[C@@H](CCCCN)C(=O)N[C@@H](CCC(N)=O)C(=O)N[C@@H](CC(C)C)C(=O)N[C@@H](CCC(N)=O)C(=O)N[C@@H](C)C(=O)N[C@@H](CCCNC(=N)N)C(=O)N[C@H](C(=O)N[C@@H](CC(C)C)C(N)=O)[C@@H](C)CC [N17, LLQLTVWGIKQLQARIL] (H-LLQLTVWGIKQLQARIL-NH2; C-terminus assumed)	20%	> 4000 nM	> 4000 nM	18.2 min	–	–	–	–	–	–	–	–	not active
CCCCCCCCCCCCCCCC(=O)N[C@@H](CC(C)C)C(=O)N[C@@H](CC(C)C)C(=O)N[C@@H](CCC(N)=O)C(=O)N[C@@H](CC(C)C)C(=O)N[C@H](C(=O)N[C@H](C(=O)N[C@@H](Cc1c[nH]c2ccccc12)C(=O)NCC(=O)N[C@H](C(=O)N[C@@H](CCCCN)C(=O)N[C@@H](CCC(N)=O)C(=O)N[C@@H](CC(C)C)C(=O)N[C@@H](CCC(N)=O)C(=O)N[C@@H](C)C(=O)N[C@@H](CCCNC(=N)N)C(=O)N[C@H](C(=O)N[C@@H](CC(C)C)C(N)=O)[C@@H](C)CC)[C@@H](C)CC)C(C)C)[C@@H](C)O [Palmitic acid-N17] (Palmitoyl-LLQLTVWGIKQLQARIL-NH2)	<10%	> 4000 nM	> 4000 nM	26.7 min	–	150000 ± 70000 M⁻¹	–	–	–	–	170000 ± 30000 M⁻¹	–	–
